According to patent US11918582B2 (RAPT Therapeutics, Inc., priority 2021, dated 2024):
Structures can show the parent of a compound that is named as a salt.

target: T1, human HPK1 (MAP4K1) (Homo sapiens, UniProt Q92918); experiment: Biochemical assay for activity against HPK1 (ADP-Glo, MBP substrate); details: recombinant human HPK1 kinase domain, 1 nM enzyme, ADP-Glo luminescence
T1 construct: Recombinant human HPK1 kinase domain was obtained from ThermoFisher (Cat. #PV6357) and SignalChem (Cat. #M23-11G); purchased ThermoFisher; SignalChem PV6357; M23-11G
T1 sequence (Q92918 17-274 limits assumed): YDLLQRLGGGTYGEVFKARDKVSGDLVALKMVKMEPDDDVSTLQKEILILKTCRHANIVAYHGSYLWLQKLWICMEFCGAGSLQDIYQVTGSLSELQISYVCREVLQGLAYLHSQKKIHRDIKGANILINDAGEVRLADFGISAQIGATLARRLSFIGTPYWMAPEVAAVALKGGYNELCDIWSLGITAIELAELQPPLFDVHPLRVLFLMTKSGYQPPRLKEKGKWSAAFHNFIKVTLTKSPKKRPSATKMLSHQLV
Outline: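 IC50s come from ADP-Glo luminescence after a 2 h room-temperature reaction phosphorylating MBP in the presence of ATP. Compound was first preincubated 15 min with 1 nM HPK1 kinase domain, human recombinant. Buffer: 50 mM HEPES pH 7.5, 150 mM NaCl, 3 mM TCEP, 10 mM MgCl2, 0.005% Tween-20, 0.01% BSA.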

IC50 [nM] | Structure (SMILES)
< 100 | CN1CCc2ccc(Nc3ncc4cnn(CCS(C)(=O)=O)c4n3)cc2C1 [Example 150, 2-methyl-N-(1-(2-(methylsulfonyl)ethyl)-1H-pyrazolo[3,4-d]pyrimidin-6-yl)-1,2,3,4-tetrahydroisoquinolin-7-amine]
< 100 | COc1cc2c(cc1Nc1ncc3cnn(C(C)C(C)(C)C#N)c3n1)CN(C)CC2 (stereo not shown) [Example 151, 3-(6-((6-methoxy-2-methyl-1,2,3,4-tetrahydroisoquinolin-7-yl)amino)-1H-pyrazolo[3,4-d]pyrimidin-1-yl)-2,2-dimethylbutanenitrile hydrochloride]
< 100 | COc1cc2c(cc1Nc1ncc3cnn([C@H]4CC[C@H](O)CC4)c3n1)CNCC2 [Example 152, trans-4-(6-((6-methoxy-1,2,3,4-tetrahydroisoquinolin-7-yl)amino)-1H-pyrazolo[3,4-d]pyrimidin-1-yl)cyclohexan-1-ol]
< 100 | COc1cc2c(cc1Nc1ncc3cnn([C@H]4CC[C@H](O)CC4)c3n1)CN(CCF)CC2 [Example 153, trans-4-(6-((2-(2-fluoroethyl)-6-methoxy-1,2,3,4-tetrahydroisoquinolin-7-yl)amino)-1H-pyrazolo[3,4-d]pyrimidin-1-yl)cyclohexan-1-ol]
< 100 | COc1cc2c(cc1Nc1ncc3cnn([C@H]4CC[C@H](O)CC4)c3n1)CN(CC(F)F)CC2 [Example 154, trans-4-(6-((2-(2,2-difluoroethyl)-6-methoxy-1,2,3,4-tetrahydroisoquinolin-7-yl)amino)-1H-pyrazolo[3,4-d]pyrimidin-1-yl)cyclohexan-1-ol]
< 100 | CCN1CCc2cc(OC)c(Nc3ncc4cnn([C@H]5CC[C@H](O)CC5)c4n3)cc2C1 [Example 155, trans-4-(6-((2-ethyl-6-methoxy-1,2,3,4-tetrahydroisoquinolin-7-yl)amino)-1H-pyrazolo[3,4-d]pyrimidin-1-yl)cyclohexan-1-ol]
< 100 | COc1cc2c(cc1Nc1ncc3cnn([C@H]4CC[C@H](O)CC4)c3n1)CN(CCO)CC2 [Example 156, trans-4-(6-((2-(2-hydroxyethyl)-6-methoxy-1,2,3,4-tetrahydroisoquinolin-7-yl)amino)-1H-pyrazolo[3,4-d]pyrimidin-1-yl)cyclohexan-1-ol]
< 100 | COc1cc2c(cc1Nc1ncc3cnn(C[C@@H]4CCC[C@H]4C(=O)O)c3n1)CN(C)CC2 [Example 157, (1R,2R)-2-[[6-[(6-methoxy-2-methyl-3,4-dihydro-1H-isoquinolin-7-yl)amino]pyrazolo[3,4-d]pyrimidin-1-yl]methyl]cyclopentanecarboxylic Acid]
< 100 | COc1cc2c(cc1Nc1ncc3cnn(C[C@H]4CCC[C@@H]4C(=O)O)c3n1)CN(C)CC2 [Example 158, (1S,2S)-2-[[6-[(6-methoxy-2-methyl-3,4-dihydro-1H-isoquinolin-7-yl)amino]pyrazolo[3,4-d]pyrimidin-1-yl]methyl]cyclopentanecarboxylic Acid]
< 100 | COc1cc2c(cc1Nc1ncc3cnn(C[C@@H]4[C@@H](C)[C@@H](O)CN4C(C)=O)c3n1)CN(C)CC2 [Example 163, 1-[(2S,3R,4S)-4-hydroxy-2-[[6-[(6-methoxy-2-methyl-3,4-dihydro-1H-isoquinolin-7-yl)amino]pyrazolo[3,4-d]pyrimidin-1-yl]methyl]-3-methyl-pyrrolidin-1-yl]ethenone]
< 100 | COc1cc2c(cc1Nc1ncc3cnn(C[C@@H]4[C@@H](C)[C@H](O)CN4C(C)=O)c3n1)CN(C)CC2 [Example 164, 1-[(2S,3R,4R)-4-hydroxy-2-[[6-[(6-methoxy-2-methyl-3,4-dihydro-1H-isoquinolin-7-yl)amino]pyrazolo[3,4-d]pyrimidin-1-yl]methyl]-3-methyl-pyrrolidin-1-yl]ethenone]
< 100 | COc1cc2c(cc1Nc1ncc3cnn([C@H]4CC[C@H](CO)CC4)c3n1)CN(CCO)CC2 [Example 167, 2-[7-[[1-[4-(hydroxymethyl)cyclohexyl]pyrazolo[3,4-d]pyrimidin-6-yl]amino]-6-methoxy-3,4-dihydro-1H-isoquinolin-2-yl]ethanol]
< 100 | CCN1CCc2cc(OC)c(Nc3ncc4cnn([C@H]5CC[C@H](CO)CC5)c4n3)cc2C1 [Example 168, [4-[6-[(2-ethyl-6-methoxy-3,4-dihydro-1H-isoquinolin-7-yl)amino]pyrazolo[3,4-d]pyrimidin-1-yl]cyclohexyl]methanol]
< 100 | COc1cc2c(cc1Nc1ncc3cnn([C@H]4CC[C@H](CO)CC4)c3n1)CN(CCF)CC2 [Example 169, [4-[6-[[2-(2-fluoroethyl)-6-methoxy-3,4-dihydro-1H-isoquinolin-7-yl]amino]pyrazolo[3,4-d]pyrimidin-1-yl]cyclohexyl]methanol]
< 100 | COc1nc2c(cc1Nc1ncc3cnn([C@H]4CC[C@H](CO)CC4)c3n1)CN(C)CC2 [Example 170]
< 100 | COc1cc2c(cc1Nc1ncc3cnn(C[C@@H]4CC[C@H](C)N4C(C)=O)c3n1)CN(C)CC2 [Example 171, 1-[(2S,5S)-2-[[6-[(6-methoxy-2-methyl-3,4-dihydro-1H-isoquinolin-7-yl)amino]pyrazolo[3,4-d]pyrimidin-1-yl]methyl]-5-methyl-pyrrolidin-1-yl]ethanone]
< 100 | COc1nc2c(cc1Nc1ncc3cnn(C[C@@H]4CC[C@H](C)N4C(C)=O)c3n1)CN(C)CC2 [Example 172, 1-[(2S,5S)-2-[[6-[(2-methoxy-6-methyl-7,8-dihydro-5H-1,6-naphthyridin-3-yl)amino]pyrazolo[3,4-d]pyrimidin-1-yl]methyl]-5-methyl-pyrrolidin-1-yl]ethenone]
< 100 | COc1nc2c(cc1Nc1ncc3cnn(C[C@@H]4CC[C@@H](C)N4C(C)=O)c3n1)CN(C)CC2 [Example 173, 1-[(2S,5R)-2-[[6-[(2-methoxy-6-methyl-7,8-dihydro-5H-1,6-naphthyridin-3-yl)amino]pyrazolo[3,4-d]pyrimidin-1-yl]methyl]-5-methyl-pyrrolidin-1-yl]ethenone Methanesulfonic Acid]
< 100 | COc1cc2c(cc1Nc1ncc3cnn(C[C@@H]4CC[C@@H](C)N4C(C)=O)c3n1)CN(C)CC2 [Example 174]
< 100 | COC[C@H]1CC[C@H](n2ncc3cnc(Nc4cc5c(cc4OC)CCN(C)C5)nc32)CC1 [Example 175, 6-methoxy-N-[trans-1-[4-(methoxymethyl)cyclohexyl]pyrazolo[3,4-d]pyrimidin-6-yl]-2-methyl-3,4-dihydro-1H-isoquinolin-7-amine]
< 100 | COc1cc2c(cc1Nc1ncc3cnn(C[C@@H]4CCC(C)(C)N4C(C)=O)c3n1)CN(C)CC2 [Example 176, 1-[(5S)-5-[[6-[(6-methoxy-2-methyl-3,4-dihydro-1H-isoquinolin-7-yl)amino]pyrazolo[3,4-d]pyrimidin-1-yl]ymethyl]-2,2-dimethyl-pyrrolidin-1-yl]ethenone]
< 100 | COc1nc2c(cc1Nc1ncc3cnn(C[C@@H]4CCC(C)(C)N4C(C)=O)c3n1)CN(C)CC2 [Example 177, 1-[(5S)-5-[[6-[(2-methoxy-6-methyl-7,8-dihydro-5H-1,6-naphthyridin-3-yl)amino]pyrazolo[3,4-d]pyrimidin-1-yl]methyl]-2,2-dimethyl-pyrrolidin-1-yl]ethenone]
< 100 | COc1cc2c(cc1Nc1ncc3cnn(C[C@@H]4CCCN4C(C)=O)c3n1)C(C)(C)N(C)CC2 [Example 178, (S)-1-(2-((6-((6-methoxy-1,1,2-trimethyl-1,2,3,4-tetrahydroisoquinolin-7-yl)amino)-1H-pyrazolo[3,4-d]pyrimidin-1-yl)methyl)pyrrolidin-1-yl)ethan-1-one]
< 100 | CN1CCc2c(cc(Nc3ncc4cnn([C@H]5CC[C@@H](O)CC5)c4n3)cc2C(F)(F)F)C1 [Example 179, (1s,4s)-4-(6-((2-methyl-5-(trifluoromethyl)-1,2,3,4-tetrahydroisoquinolin-7-yl)amino)-1H-pyrazolo[3,4-d]pyrimidin-1-yl)cyclohexan-1-ol]
< 100 | CN1CCc2c(cc(Nc3ncc4cnn([C@@H]5CCC[C@@H](C(N)=O)C5)c4n3)cc2C(F)(F)F)C1 [Example 180, (1R,3R)-3-(6-((2-methyl-5-(trifluoromethyl)-1,2,3,4-tetrahydroisoquinolin-7-yl)amino)-1H-pyrazolo[3,4-d]pyrimidin-1-yl)cyclohexane-1-carboxamide]
< 100 | COc1nc2c(cc1Nc1ncc3cnn([C@@H]4CCC[C@@H](C(N)=O)C4)c3n1)CN(C)CC2 [Example 181, (1R,3R)-3-(6-((2-methoxy-6-methyl-5,6,7,8-tetrahydro-1,6-naphthyridin-3-yl)amino)-1H-pyrazolo[3,4-d]pyrimidin-1-yl)cyclohexane-1-carboxamide Mesylate]
< 100 | CC(=O)N1CCC[C@H]1Cn1ncc2cnc(Nc3cc4c(cc3C)CCN(C)C4)nc21 [Example 183, (S)-1-(2-((6-((2,6-dimethyl-1,2,3,4-tetrahydroisoquinolin-7-yl)amino)-1H-pyrazolo[3,4-d]pyrimidin-1-yl)methyl)pyrrolidin-1-yl)ethan-1-one]
< 100 | COc1cc2c(cc1Nc1ncc3cnn(C[C@@H]4CCCN4C(C)=O)c3n1)[C@@H](C)N(C)CC2 [Example 184, 1-((S)-2-((6-(((R)-6-methoxy-1,2-dimethyl-1,2,3,4-tetrahydroisoquinolin-7-yl)amino)-1H-pyrazolo[3,4-d]pyrimidin-1-yl)methyl)pyrrolidin-1-yl)ethan-1-one]
